Experiments:
[1] = tested on: Plasmodium falciparum; test: Antiplasmodial activity against chloroquine-resistant blood stage of Plasmodium falciparum W2 infected in human RBC after 48 hrs by flow cytometric analysis; format: functional, organism-based; settings: W2, 48 h
[2] = tested on: Plasmodium berghei; test: microbe, parasite or virus in culture; settings: Huh-7, Liver
Description: Antiplasmodial activity against liver sporozoite stage of Plasmodium berghei expressing luciferase and GFP infected in human HuH7 cells assessed as inhibition of parasite development incubated for 1 hr prior to parasite infection measured after 48 hrs by Alamar blue assay

[3] = Cytotoxicity against human HuH7 cells assessed as cell viability after 48 hrs by Alamar blue assay; format: cell-based, Huh-7
[4] = tested on: Plasmodium berghei; test: Antiplasmodial activity against liver sporozoite stage of Plasmodium berghei ANKA expressing GFP infected in human HuH7 cells assessed as inhibition of parasite development after 24 hrs by qRT-PCR analysis; format: functional, organism-based; settings: Huh-7, Liver

IC50 [4] [µM] | SMILES | IC50 [1] [µM] | IC50 [2] [µM] | CC50 at 48 h [3] [µM]
 | O=c1cc(-c2ccc(Oc3ccc(Cl)cc3)cc2)oc2ccc(Cl)cc12 | > 25 |  | 
 | Cc1cc2oc(-c3ccc(OCCCC(F)(F)F)cc3)cc(=O)c2cc1Cl | 17.2 |  | 
 | Cc1ccc2c(=O)cc(-c3ccc(Oc4ccc(Cl)cc4)cc3)oc2c1 | 19.7 | 4.1 | > 50
 | O=c1cc(-c2ccc(Oc3cccc(OC(F)(F)F)c3)cc2)oc2ccccc12 | 14.9 |  | 
 | Cc1cc2oc(-c3ccc(Oc4ccc(Cl)cc4)cc3)cc(=O)c2cc1Cl | 23.2 |  | 
 | Cc1cc2oc(-c3ccc(-c4ccccc4)cc3)c(Br)c(=O)c2cc1Cl | > 25 |  | 
 | Cc1cc2oc(-c3ccc(-c4ccccc4)cc3)cc(=O)c2cc1Cl | 14 | 8.5 | > 90
 | Nc1ccc(-c2ccc(-c3cc(=O)c4ccccc4o3)cc2)cn1 | 3.88 | 1.9 | > 15
 | O=c1cc(-c2ccc(-c3ccccc3)cc2)oc2ccccc12 | > 25 |  | 
 | O=c1cc(-c2ccc(Br)cc2)oc2ccccc12 | > 25 |  | 
 | O=c1cc(-c2ccc(Oc3ccc(Cl)cc3)cc2)oc2cc(Cl)ccc12 | 12.6 |  | 
20 | O=c1c(-c2ccc(O)cc2)coc2cc(O)cc(O)c12 [GENISTEIN] |  |  | 
 | O=c1c(Br)c(-c2ccc(-c3ccccc3)cc2)oc2cc(CBr)c(Cl)cc12 | 5.96 |  | 
 | O=Cc1ccc(-c2ccc(-c3cc(=O)c4ccccc4o3)cc2)cc1 | > 25 |  | 
 | O=c1cc(-c2ccc(-c3cnc4ccccc4c3)cc2)oc2ccccc12 | 5.17 |  | 
 | O=c1cc(-c2ccc(-c3ccc(Cl)cc3)cc2)oc2ccccc12 | > 10 |  | 
 | Cc1cc2oc(-c3ccc(Oc4ccc(OC(F)(F)F)cc4)cc3)cc(=O)c2cc1Cl | > 25 |  | 
 | O=c1cc(-c2ccc(Oc3ccc(Cl)cc3)cc2)oc2ccccc12 | 21 | 6.2 | > 180
 | O=c1cc(-c2ccc(-c3ccc(F)cc3)cc2)oc2ccccc12 | > 25 |  | 
